# Test results: US20230220021A1, “CYCLIC PEPTIDE INHIBITORS OF PSD-95 AND USES THEREOF” (University of Copenhagen, priority 2020, published 2023)
# pKi: −log10 of the molar value. Where a SMILES comes first, the peptide text is derived from it. [ ]: non-standard residue; d: D form.
# Biological target: T1, PSD-95-PDZ2 (Homo sapiens, UniProt P78352)
# T1 construct: 7xHis (N); made in house; host or cells: Escherichia coli B21 pLys (for the mutants, 'as previously described')
# Assay: Fluorescence polarization (FP) competition assay against cyclic nNOS TAMRA probe
# Assay type: binding
# Conditions: FP competition, cyclic nNOS TAMRA probe; mean of triplicates; N.B. = not binding; read-out: Ki
# T1 sequence (P78352 160-246 limits assumed): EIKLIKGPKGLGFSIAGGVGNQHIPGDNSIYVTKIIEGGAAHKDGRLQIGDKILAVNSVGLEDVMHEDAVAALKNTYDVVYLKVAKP
row,pKi,Structure (SMILES)
1,6.00,CC[C@H](C)[C@@H]1NC(=O)[C@H]([C@@H](C)O)NC(=O)[C@H](CCCCN)NC(=O)[C@@H]2CCCN2C(=O)[C@H]([C@@H](C)O)NC(=O)CNC(=O)[C@H](CCCNC(=N)N)NC(=O)CNC(=O)[C@H]([C@@H](C)O)NC(=O)[C@H](Cc2ccccc2)NC(=O)[C@H]([C@@H](C)O)NC(=O)[C@H]([C@@H](C)O)NC(=O)[C@H](CCC(=O)O)NC(=O)[C@H](CC(C)C)NC(=O)[C@H](Cc2c[nH]cn2)NC(=O)[C@H]([C@@H](C)O)NC(=O)[C@H](CCC(N)=O)NC(=O)CNC(=O)[C@H]2CCCN2C(=O)[C@H](CCC(N)=O)NC(=O)[C@H]([C@@H](C)O)NC(=O)[C@H](C(C)C)NC(=O)[C@H](CCCNC(=N)N)NC1=O [compound 34] (cyclo(THLETTFTGRGTPKTIRVTQ[dP]GQ))
2,5.75,CC(C)C[C@@H]1NC(=O)[C@H](Cc2c[nH]cn2)NC(=O)[C@H]([C@@H](C)O)NC(=O)[C@H](CCC(N)=O)NC(=O)CNC(=O)[C@H]2CCCN2C(=O)[C@H](CCC(N)=O)NC(=O)[C@H]([C@@H](C)O)NC(=O)[C@H](C(C)C)NC(=O)[C@H](CCCNC(=N)N)NC(=O)[C@H](CCCNC(=N)N)NC(=O)[C@H]([C@@H](C)O)NC(=O)[C@H](CCCCN)NC(=O)[C@@H]2CCCN2C(=O)[C@H]([C@@H](C)O)NC(=O)CNC(=O)[C@H](CC(=O)O)NC(=O)CNC(=O)[C@H]([C@@H](C)O)NC(=O)[C@H](Cc2ccccc2)NC(=O)[C@H]([C@@H](C)O)NC(=O)[C@H]([C@@H](C)O)NC(=O)[C@H](CCC(=O)O)NC1=O [compound 41] (cyclo(THLETTFTGDGTPKTRRVTQ[dP]GQ))

# Same assay, conditions: FP inhibition constant normalized to WT value
row,Structure (SMILES),Relative Ki (Ki mut/Ki WT)
1,CC[C@H](C)[C@@H]1NC(=O)[C@H]([C@@H](C)O)NC(=O)[C@H](CCCCN)NC(=O)[C@@H]2CCCN2C(=O)[C@H]([C@@H](C)O)NC(=O)CNC(=O)[C@H](CCCCN)NC(=O)CNC(=O)[C@H]([C@@H](C)O)NC(=O)[C@H](Cc2ccccc2)NC(=O)[C@H]([C@@H](C)O)NC(=O)[C@H]([C@@H](C)O)NC(=O)[C@H](CCC(=O)O)NC(=O)[C@H](CC(C)C)NC(=O)[C@H](Cc2c[nH]cn2)NC(=O)[C@H]([C@@H](C)O)NC(=O)[C@H](CCC(N)=O)NC(=O)CNC(=O)[C@H]2CCCN2C(=O)[C@H](CCC(N)=O)NC(=O)[C@H]([C@@H](C)O)NC(=O)[C@H](C(C)C)NC(=O)[C@H](CCCNC(=N)N)NC1=O [compound 28] (cyclo(THLETTFTGKGTPKTIRVTQ[dP]GQ)),1.91
2,CC[C@H](C)[C@@H]1NC(=O)[C@H]([C@@H](C)O)NC(=O)[C@H](CCCCN)NC(=O)[C@@H]2CCCN2C(=O)[C@H]([C@@H](C)O)NC(=O)CNC(=O)[C@@H]2CCCN2C(=O)CNC(=O)[C@H]([C@@H](C)O)NC(=O)[C@H](Cc2ccccc2)NC(=O)[C@H]([C@@H](C)O)NC(=O)[C@H]([C@@H](C)O)NC(=O)[C@H](CCC(=O)O)NC(=O)[C@H](CC(C)C)NC(=O)[C@H](Cc2c[nH]cn2)NC(=O)[C@H]([C@@H](C)O)NC(=O)[C@H](CCC(N)=O)NC(=O)CNC(=O)[C@H]2CCCN2C(=O)[C@H](CCC(N)=O)NC(=O)[C@H]([C@@H](C)O)NC(=O)[C@H](C(C)C)NC(=O)[C@H](CCCNC(=N)N)NC1=O [compound 29] (cyclo(THLETTFTGPGTPKTIRVTQ[dP]GQ)),1.60
3,CC[C@H](C)[C@@H]1NC(=O)[C@H]([C@@H](C)O)NC(=O)[C@H](CCCCN)NC(=O)[C@@H]2CCCN2C(=O)[C@H]([C@@H](C)O)NC(=O)CNC(=O)[C@H](CCCNC(=N)N)NC(=O)CNC(=O)[C@H]([C@@H](C)O)NC(=O)[C@H](Cc2ccccc2)NC(=O)[C@H]([C@@H](C)O)NC(=O)[C@H]([C@@H](C)O)NC(=O)[C@H](CCC(=O)O)NC(=O)[C@H](CC(C)C)NC(=O)[C@H](Cc2c[nH]cn2)NC(=O)[C@H]([C@@H](C)O)NC(=O)[C@H](CCC(N)=O)NC(=O)CNC(=O)[C@H]2CCCN2C(=O)[C@H](CCC(N)=O)NC(=O)[C@H]([C@@H](C)O)NC(=O)[C@H](C(C)C)NC(=O)[C@H](CCCNC(=N)N)NC1=O [compound 34] (cyclo(THLETTFTGRGTPKTIRVTQ[dP]GQ)),0.66
4,CC[C@H](C)[C@@H]1NC(=O)[C@H]([C@@H](C)O)NC(=O)[C@H](CCCCN)NC(=O)[C@@H]2CCCN2C(=O)[C@H]([C@@H](C)O)NC(=O)[C@H](CCCNC(=N)N)NC(=O)[C@H](CC(=O)O)NC(=O)CNC(=O)[C@H]([C@@H](C)O)NC(=O)[C@H](Cc2ccccc2)NC(=O)[C@H]([C@@H](C)O)NC(=O)[C@H]([C@@H](C)O)NC(=O)[C@H](CCC(=O)O)NC(=O)[C@H](CC(C)C)NC(=O)[C@H](Cc2c[nH]cn2)NC(=O)[C@H]([C@@H](C)O)NC(=O)[C@H](CCC(N)=O)NC(=O)CNC(=O)[C@H]2CCCN2C(=O)[C@H](CCC(N)=O)NC(=O)[C@H]([C@@H](C)O)NC(=O)[C@H](C(C)C)NC(=O)[C@H](CCCNC(=N)N)NC1=O [compound 35] (cyclo(THLETTFTGDRTPKTIRVTQ[dP]GQ)),0.50
5,CC[C@H](C)[C@@H]1NC(=O)[C@H]([C@@H](C)O)NC(=O)[C@H](CCCCN)NC(=O)[C@@H]2CCCN2C(=O)[C@H](Cc2c[nH]c3ccccc23)NC(=O)CNC(=O)[C@H](CC(=O)O)NC(=O)CNC(=O)[C@H]([C@@H](C)O)NC(=O)[C@H](Cc2ccccc2)NC(=O)[C@H]([C@@H](C)O)NC(=O)[C@H]([C@@H](C)O)NC(=O)[C@H](CCC(=O)O)NC(=O)[C@H](CC(C)C)NC(=O)[C@H](Cc2c[nH]cn2)NC(=O)[C@H]([C@@H](C)O)NC(=O)[C@H](CCC(N)=O)NC(=O)CNC(=O)[C@H]2CCCN2C(=O)[C@H](CCC(N)=O)NC(=O)[C@H]([C@@H](C)O)NC(=O)[C@H](C(C)C)NC(=O)[C@H](CCCNC(=N)N)NC1=O [compound 36] (cyclo(THLETTFTGDGWPKTIRVTQ[dP]GQ)),0.69
6,CC(C)C[C@@H]1NC(=O)[C@H](Cc2c[nH]cn2)NC(=O)[C@H]([C@@H](C)O)NC(=O)[C@H](CCC(N)=O)NC(=O)CNC(=O)[C@H]2CCCN2C(=O)[C@H](CCC(N)=O)NC(=O)[C@H]([C@@H](C)O)NC(=O)[C@H](C(C)C)NC(=O)[C@H](CCCNC(=N)N)NC(=O)[C@H](Cc2ccc(O)cc2)NC(=O)[C@H]([C@@H](C)O)NC(=O)[C@H](CCCCN)NC(=O)[C@@H]2CCCN2C(=O)[C@H]([C@@H](C)O)NC(=O)CNC(=O)[C@H](CC(=O)O)NC(=O)CNC(=O)[C@H]([C@@H](C)O)NC(=O)[C@H](Cc2ccccc2)NC(=O)[C@H]([C@@H](C)O)NC(=O)[C@H]([C@@H](C)O)NC(=O)[C@H](CCC(=O)O)NC1=O [compound 42] (cyclo(THLETTFTGDGTPKTYRVTQ[dP]GQ)),1.07

# Next, values leading:
row,Relative Ki (Ki mut/Ki WT),Structure (SMILES)
1,0.77,CC[C@H](C)[C@@H]1NC(=O)[C@H]([C@@H](C)O)NC(=O)[C@H](CCCCN)NC(=O)[C@@H]2CCCN2C(=O)[C@@H]2CCCN2C(=O)CNC(=O)[C@H](CC(=O)O)NC(=O)CNC(=O)[C@H]([C@@H](C)O)NC(=O)[C@H](Cc2ccccc2)NC(=O)[C@H]([C@@H](C)O)NC(=O)[C@H]([C@@H](C)O)NC(=O)[C@H](CCC(=O)O)NC(=O)[C@H](CC(C)C)NC(=O)[C@H](Cc2c[nH]cn2)NC(=O)[C@H]([C@@H](C)O)NC(=O)[C@H](CCC(N)=O)NC(=O)CNC(=O)[C@H]2CCCN2C(=O)[C@H](CCC(N)=O)NC(=O)[C@H]([C@@H](C)O)NC(=O)[C@H](C(C)C)NC(=O)[C@H](CCCNC(=N)N)NC1=O [compound 31] (cyclo(THLETTFTGDGPPKTIRVTQ[dP]GQ))
2,0.91,CC[C@H](C)[C@@H]1NC(=O)[C@H]([C@@H](C)O)NC(=O)[C@H](CCCCN)NC(=O)[C@@H]2CCCN2C(=O)[C@H](CS)NC(=O)CNC(=O)[C@H](CC(=O)O)NC(=O)CNC(=O)[C@H]([C@@H](C)O)NC(=O)[C@H](Cc2ccccc2)NC(=O)[C@H]([C@@H](C)O)NC(=O)[C@H]([C@@H](C)O)NC(=O)[C@H](CCC(=O)O)NC(=O)[C@H](CC(C)C)NC(=O)[C@H](Cc2c[nH]cn2)NC(=O)[C@H]([C@@H](C)O)NC(=O)[C@H](CCC(N)=O)NC(=O)CNC(=O)[C@H]2CCCN2C(=O)[C@H](CCC(N)=O)NC(=O)[C@H]([C@@H](C)O)NC(=O)[C@H](C(C)C)NC(=O)[C@H](CCCNC(=N)N)NC1=O [compound 38] (cyclo(THLETTFTGDGCPKTIRVTQ[dP]GQ))
3,12.59,CC[C@H](C)[C@@H]1NC(=O)[C@H](CC(N)=O)NC(=O)[C@H](CCCCN)NC(=O)[C@@H]2CCCN2C(=O)[C@H]([C@@H](C)O)NC(=O)CNC(=O)[C@H](CC(=O)O)NC(=O)CNC(=O)[C@H]([C@@H](C)O)NC(=O)[C@H](Cc2ccccc2)NC(=O)[C@H]([C@@H](C)O)NC(=O)[C@H]([C@@H](C)O)NC(=O)[C@H](CCC(=O)O)NC(=O)[C@H](CC(C)C)NC(=O)[C@H](Cc2c[nH]cn2)NC(=O)[C@H]([C@@H](C)O)NC(=O)[C@H](CCC(N)=O)NC(=O)CNC(=O)[C@H]2CCCN2C(=O)[C@H](CCC(N)=O)NC(=O)[C@H]([C@@H](C)O)NC(=O)[C@H](C(C)C)NC(=O)[C@H](CCCNC(=N)N)NC1=O [compound 39] (cyclo(THLETTFTGDGTPKNIRVTQ[dP]GQ))
4,0.34,CC[C@H](C)[C@@H]1NC(=O)[C@H]([C@@H](C)O)NC(=O)[C@H](CCCCN)NC(=O)[C@@H]2CCCN2C(=O)[C@H](CC(N)=O)NC(=O)CNC(=O)[C@H](CC(=O)O)NC(=O)CNC(=O)[C@H]([C@@H](C)O)NC(=O)[C@H](Cc2ccccc2)NC(=O)[C@H]([C@@H](C)O)NC(=O)[C@H]([C@@H](C)O)NC(=O)[C@H](CCC(=O)O)NC(=O)[C@H](CC(C)C)NC(=O)[C@H](Cc2c[nH]cn2)NC(=O)[C@H]([C@@H](C)O)NC(=O)[C@H](CCC(N)=O)NC(=O)CNC(=O)[C@H]2CCCN2C(=O)[C@H](CCC(N)=O)NC(=O)[C@H]([C@@H](C)O)NC(=O)[C@H](C(C)C)NC(=O)[C@H](CCCNC(=N)N)NC1=O [compound 40] (cyclo(THLETTFTGDGNPKTIRVTQ[dP]GQ))
5,1.17,CC(C)C[C@@H]1NC(=O)[C@H](Cc2c[nH]cn2)NC(=O)[C@H]([C@@H](C)O)NC(=O)[C@H](CCC(N)=O)NC(=O)CNC(=O)[C@H]2CCCN2C(=O)[C@H](CCC(N)=O)NC(=O)[C@H]([C@@H](C)O)NC(=O)[C@H](C(C)C)NC(=O)[C@H](CCCNC(=N)N)NC(=O)[C@H](CCCNC(=N)N)NC(=O)[C@H]([C@@H](C)O)NC(=O)[C@H](CCCCN)NC(=O)[C@@H]2CCCN2C(=O)[C@H]([C@@H](C)O)NC(=O)CNC(=O)[C@H](CC(=O)O)NC(=O)CNC(=O)[C@H]([C@@H](C)O)NC(=O)[C@H](Cc2ccccc2)NC(=O)[C@H]([C@@H](C)O)NC(=O)[C@H]([C@@H](C)O)NC(=O)[C@H](CCC(=O)O)NC1=O [compound 41] (cyclo(THLETTFTGDGTPKTRRVTQ[dP]GQ))
6,1.13,CC[C@H](C)[C@@H]1NC(=O)[C@H]([C@@H](C)O)NC(=O)[C@H](CCCCN)NC(=O)[C@@H]2CCCN2C(=O)[C@H]([C@@H](C)O)NC(=O)CNC(=O)[C@H](CC(=O)O)NC(=O)CNC(=O)[C@H]([C@@H](C)O)NC(=O)[C@H](Cc2ccccc2)NC(=O)[C@H]([C@@H](C)O)NC(=O)[C@H]([C@@H](C)O)NC(=O)[C@H](CCC(=O)O)NC(=O)[C@H](CC(C)C)NC(=O)[C@H](Cc2c[nH]cn2)NC(=O)[C@H]([C@@H](C)O)NC(=O)[C@H](CCC(N)=O)NC(=O)CNC(=O)[C@H]2CCCN2C(=O)[C@H](CCC(N)=O)NC(=O)[C@H]([C@@H](C)O)NC(=O)[C@H](CCCNC(=N)N)NC(=O)[C@H](CCCNC(=N)N)NC1=O [compound 43] (cyclo(THLETTFTGDGTPKTIRRTQ[dP]GQ))
